Assay results reported in ChEMBL document CHEMBL5108047 (J Med Chem, 2022).

Legend:
DNA polymerase theta [1] = target: T1, DNA polymerase theta (Homo sapiens, UniProt O75417); test: Inhibition of human DNA polymerase theta pol domain (1819 to 2590 residues) expressed in Escherichia coli BL21 (DE3) cells preincubated for 15 mins followed by DNA and dNTP addition and measured after 120 mins by Picogreen dye fluorescence intensity analysis
[2] = mouse, microsomes
Description: Metabolic stability in mouse liver microsomes assessed as clearance

[3] = AUC in CD-1 mouse at 20 mg/kg, po measured upto 24 hrs by reverse phase LCMS analysis; format: ADME, organism-based; set-up: time < 24 hrs, dose 20 mg/kg, route po; conditions: in vivo
[4] = fCaverage in CD-1 mouse; format: ADME
[5] = Plasma protein binding in mouse assessed as unbound fraction by equilibrium dailysis; format: ADME, cell-free
DNA polymerase theta [6] = target: T1, DNA polymerase theta; test: Inhibition of human DNA polymerase theta using DNA 16/19 as substrate at 2 nM of enzyme concentration
DNA polymerase theta [7] = target: T1, DNA polymerase theta; test: Inhibition of human DNA polymerase theta using DNA 16/19 as substrate at 0.5 nM of enzyme concentration
DNA polymerase theta [8] = target: T1, DNA polymerase theta; test: Inhibition of human DNA polymerase theta using DNA 16/19 as substrate at 1 nM of enzyme concentration
DNA polymerase theta [9] = target: T1, DNA polymerase theta; test: Inhibition of human DNA polymerase theta using DNA 16/19 as substrate at 5 nM of enzyme concentration
DNA polymerase theta [10] = target: T1, DNA polymerase theta; test: Inhibition of human DNA polymerase theta using 5'-CACTGACTGTATGATG as primer and DNA 16/19 as substrate by FRET assay

T1 sequence (O75417 whole entry, the tested form may be a part): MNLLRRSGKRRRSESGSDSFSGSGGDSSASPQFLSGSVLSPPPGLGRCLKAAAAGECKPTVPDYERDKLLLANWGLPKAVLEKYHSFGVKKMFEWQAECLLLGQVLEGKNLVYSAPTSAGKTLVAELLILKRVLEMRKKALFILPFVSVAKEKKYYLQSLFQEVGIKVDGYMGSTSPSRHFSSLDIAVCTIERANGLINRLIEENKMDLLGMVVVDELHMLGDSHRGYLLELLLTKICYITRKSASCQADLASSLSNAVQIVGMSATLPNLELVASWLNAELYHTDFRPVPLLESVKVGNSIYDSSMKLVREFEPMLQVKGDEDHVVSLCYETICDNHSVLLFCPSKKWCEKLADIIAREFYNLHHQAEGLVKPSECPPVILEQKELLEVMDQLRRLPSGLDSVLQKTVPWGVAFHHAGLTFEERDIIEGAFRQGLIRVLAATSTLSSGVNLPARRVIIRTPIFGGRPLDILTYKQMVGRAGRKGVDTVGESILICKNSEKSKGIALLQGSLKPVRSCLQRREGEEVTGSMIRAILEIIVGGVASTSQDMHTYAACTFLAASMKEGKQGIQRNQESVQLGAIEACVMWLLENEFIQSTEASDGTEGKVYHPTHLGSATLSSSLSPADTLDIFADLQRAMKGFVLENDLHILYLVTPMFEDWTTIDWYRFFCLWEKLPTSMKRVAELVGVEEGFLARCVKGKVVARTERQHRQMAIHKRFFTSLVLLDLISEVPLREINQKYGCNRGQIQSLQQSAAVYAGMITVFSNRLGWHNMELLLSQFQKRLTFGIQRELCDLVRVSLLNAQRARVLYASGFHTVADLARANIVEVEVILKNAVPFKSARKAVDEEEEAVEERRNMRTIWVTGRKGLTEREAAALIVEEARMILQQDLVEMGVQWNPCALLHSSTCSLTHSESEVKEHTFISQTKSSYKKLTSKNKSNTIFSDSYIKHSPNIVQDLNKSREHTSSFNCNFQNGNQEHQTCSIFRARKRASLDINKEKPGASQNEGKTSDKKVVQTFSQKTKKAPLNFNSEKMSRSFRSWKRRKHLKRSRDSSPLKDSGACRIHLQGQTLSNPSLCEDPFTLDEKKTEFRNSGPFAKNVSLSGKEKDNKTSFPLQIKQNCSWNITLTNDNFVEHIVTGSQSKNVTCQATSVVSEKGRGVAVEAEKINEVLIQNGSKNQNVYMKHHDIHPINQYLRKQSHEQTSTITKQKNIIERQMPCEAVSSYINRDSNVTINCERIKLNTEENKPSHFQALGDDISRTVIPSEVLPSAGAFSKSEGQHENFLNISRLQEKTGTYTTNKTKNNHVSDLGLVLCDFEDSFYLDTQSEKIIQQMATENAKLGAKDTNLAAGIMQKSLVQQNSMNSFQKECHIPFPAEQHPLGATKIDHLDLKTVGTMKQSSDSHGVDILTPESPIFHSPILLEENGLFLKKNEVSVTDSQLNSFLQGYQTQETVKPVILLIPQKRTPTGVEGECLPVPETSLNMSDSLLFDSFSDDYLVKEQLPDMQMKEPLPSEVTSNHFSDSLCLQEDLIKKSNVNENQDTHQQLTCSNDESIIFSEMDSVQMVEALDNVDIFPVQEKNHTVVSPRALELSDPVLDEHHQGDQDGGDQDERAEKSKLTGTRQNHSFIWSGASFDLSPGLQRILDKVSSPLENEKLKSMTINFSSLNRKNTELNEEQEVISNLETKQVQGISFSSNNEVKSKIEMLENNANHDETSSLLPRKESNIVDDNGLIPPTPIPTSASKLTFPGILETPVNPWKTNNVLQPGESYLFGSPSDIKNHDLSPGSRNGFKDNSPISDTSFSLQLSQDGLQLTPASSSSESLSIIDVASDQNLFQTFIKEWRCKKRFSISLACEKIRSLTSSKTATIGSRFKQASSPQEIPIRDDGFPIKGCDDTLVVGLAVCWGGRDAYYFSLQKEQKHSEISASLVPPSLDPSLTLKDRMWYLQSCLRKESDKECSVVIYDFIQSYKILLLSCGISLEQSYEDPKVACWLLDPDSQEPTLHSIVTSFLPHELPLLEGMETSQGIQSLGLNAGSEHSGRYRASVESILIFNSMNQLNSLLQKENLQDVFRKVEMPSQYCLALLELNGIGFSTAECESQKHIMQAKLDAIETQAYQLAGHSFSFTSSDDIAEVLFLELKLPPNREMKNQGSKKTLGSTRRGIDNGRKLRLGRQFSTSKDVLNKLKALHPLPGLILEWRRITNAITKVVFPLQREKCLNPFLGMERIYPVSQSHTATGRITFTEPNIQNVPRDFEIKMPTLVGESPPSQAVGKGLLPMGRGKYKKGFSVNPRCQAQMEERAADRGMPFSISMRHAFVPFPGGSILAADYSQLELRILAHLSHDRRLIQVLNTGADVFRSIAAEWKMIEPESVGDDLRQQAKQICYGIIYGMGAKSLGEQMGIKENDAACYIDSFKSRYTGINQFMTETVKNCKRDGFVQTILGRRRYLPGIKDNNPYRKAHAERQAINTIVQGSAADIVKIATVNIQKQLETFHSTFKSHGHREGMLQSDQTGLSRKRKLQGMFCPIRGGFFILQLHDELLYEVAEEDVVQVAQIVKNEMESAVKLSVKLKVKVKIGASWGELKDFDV

IC50 (DNA polymerase theta [1])	CLH [2]	Compound	further results
0.068 nM	614 µL/min/mg	Cc1nnc(C(=O)NCC#CCN(C(=O)Cc2ccc(C(F)(F)F)cc2C(F)(F)F)c2ccccc2)o1	
2200 nM	56 µL/min/mg	CN(C(=O)Cc1ccc(C(F)(F)F)cc1C(F)(F)F)c1ccncc1	
0.4 nM	469 µL/min/mg	O=C(NCC#CCN(C(=O)Cc1ccc(C(F)(F)F)cc1C(F)(F)F)c1ccccc1)c1ccccn1	
0.91 nM		CS(=O)(=O)Cn1cc(C#CCN(C(=O)Cc2ncc(C(F)(F)F)cc2C(F)(F)F)c2ccc(F)cc2)cn1	AUC [3]: 76.3 µM·h; f(Cave) [4]: 60 nM; Fu [5]: 0.019
42 nM	115 µL/min/mg	N#CCN(C(=O)Cc1ccc(C(F)(F)F)cc1C(F)(F)F)c1ccccc1	
3.9 nM	105 µL/min/mg	O=C(Cc1ccc(C(F)(F)F)cc1C(F)(F)F)N(CC#Cc1ncccn1)c1ccccc1	
0.2 nM	492 µL/min/mg	O=C(NCC#CCN(C(=O)Cc1ccc(C(F)(F)F)cc1C(F)(F)F)c1ccccc1)c1cccnc1	
14 nM	597 µL/min/mg	C#CCN(C(=O)Cc1ccc(C(F)(F)F)cc1C(F)(F)F)c1ccccc1	
0.99 nM		CC(C(N)=O)n1cc(C#CCN(C(=O)Cc2ncc(C(F)(F)F)cc2C(F)(F)F)c2ccc(F)cc2)cn1 (configuration not stated)	AUC [3]: 27 µM·h; f(Cave) [4]: 49 nM; Fu [5]: 0.044
2.5 nM	110 µL/min/mg	O=C(Cc1ccc(C(F)(F)F)cc1C(F)(F)F)N(CC#Cc1cccnc1)c1ccccc1	
2.9 nM	64 µL/min/mg	O=C(Cc1ccc(C(F)(F)F)cc1C(F)(F)F)N(CC#Cc1ccccn1)c1ccccc1	
65 nM		CN(C(=O)Cc1ncc(C(F)(F)F)cc1C(F)(F)F)c1ccccc1	
17 nM	125 µL/min/mg	CN(C(=O)Cc1ccc(C(F)(F)F)cc1C(F)(F)F)c1ccc(F)cc1	
2700 nM	> 832 µL/min/mg	CN(C(=O)Cc1ccc(C(F)(F)F)cc1C(F)(F)F)c1ccccn1	
0.51 nM	39 µL/min/mg	O=C(Cc1ccc(C(F)(F)F)cc1C(F)(F)F)N(CC#Cc1cccc(=O)[nH]1)c1ccccc1	
1.2 nM	57 µL/min/mg	Cn1cncc1C#CCN(C(=O)Cc1ccc(C(F)(F)F)cc1C(F)(F)F)c1ccccc1	
3200 nM	216 µL/min/mg	CN(C(=O)Cc1ccc(C(F)(F)F)cc1C(F)(F)F)c1cccnc1	
0.82 nM	> 832 µL/min/mg	CC(=O)NCC#CCN(C(=O)Cc1ccc(C(F)(F)F)cc1C(F)(F)F)c1ccccc1	

The next lines start with the compound.

Compound	IC50 (DNA polymerase theta [1])	CLH [2]	further results
CN(C(=O)Cn1nc2c(c1C(F)(F)F)CC(C)(C)C2)c1ccccc1	560 nM	> 555 µL/min/mg	
CN(C(=O)Cc1ccccc1C(F)(F)F)c1ccccc1	9200 nM		
CC1CCc2nn(CC(=O)N(C)c3ccccc3)c(C(F)(F)F)c21 (configuration not stated)	240 nM	> 555 µL/min/mg	
Cn1nc(N)cc1C#CCN(C(=O)Cc1ncc(C(F)(F)F)cc1C(F)(F)F)c1ccc(F)cc1	1.7 nM		AUC [3]: 35.6 µM·h; f(Cave) [4]: 65 nM; Fu [5]: 0.044
CN(C(=O)Cn1nc(C(F)(F)F)c2c1CCCC2)c1ccccc1	11000 nM		
CN(C(=S)Cn1nc2c(c1C(F)(F)F)CCC2)c1ccccc1	17 nM	> 555 µL/min/mg	IC50 (DNA polymerase theta [6]): 8.71 nM; IC50 (DNA polymerase theta [7]): 8.48 nM; IC50 (DNA polymerase theta [8]): 7.49 nM; IC50 (DNA polymerase theta [9]): 11.1 nM; IC50 (DNA polymerase theta [10]): 10 nM
O=C(Cc1ncc(C(F)(F)F)cc1C(F)(F)F)N(CC#Cc1cnn(C2CNC2)c1)c1ccc(F)cc1	0.75 nM		AUC [3]: 14.1 µM·h; f(Cave) [4]: 29 nM; Fu [5]: 0.051
CN(C(=O)Cn1nc2c(c1C(F)(F)F)CS(=O)(=O)C2)c1ccccc1	43000 nM	23 µL/min/mg	
CN(C(=O)Cn1nc2c(c1C(F)(F)F)C(O)CC2)c1ccccc1 (configuration not stated)	> 100000 nM	46 µL/min/mg	
CN(C(=O)Cn1nc2c(c1C(F)(F)F)C(C)(C)CC2)c1ccccc1	520 nM	> 555 µL/min/mg	
CN(C(=O)Cn1nc2c(c1C(F)(F)F)CCC2(C)C)c1ccccc1	2300 nM	> 832 µL/min/mg	
CC1Cc2nn(CC(=O)N(C)c3ccccc3)c(C(F)(F)F)c2C1 (configuration not stated)	950 nM	> 832 µL/min/mg	
CN(C(=O)Cn1nc2c(c1C(F)(F)F)C(=O)NCC2)c1ccccc1	> 100000 nM	18 µL/min/mg	
CN(C(=O)Cn1c(C(F)(F)F)cc(C(F)(F)F)cc1=O)c1ccccc1	58 nM		
O=C(Cc1ncc(C(F)(F)F)cc1C(F)(F)F)N(CC#Cc1ccc(C2CCNC2)cn1)c1ccc(F)cc1 (configuration not stated)	0.72 nM		AUC [3]: 38 µM·h; f(Cave) [4]: 30 nM; Fu [5]: 0.019
CN(C(=O)Cn1nc2c(c1C(F)(F)F)CCC2)c1ccccc1	710 nM	> 555 µL/min/mg	
Cc1c2c(nn1CC(=O)N(C)c1ccccc1)CCC2	10000 nM	473 µL/min/mg	
[2H]C([2H])([2H])N(C(=O)Cc1ccc(C(F)(F)F)cc1C(F)(F)F)c1ccc(F)cc1	19 nM	52 µL/min/mg	
CN(C(=O)Cc1ccc(Cl)cc1C(F)(F)F)c1ccccc1	121 nM		
COc1ncc(C#CCN(C(=O)Cc2ncc(C(F)(F)F)cc2C(F)(F)F)c2ccc(F)cc2)cn1	2.1 nM		AUC [3]: 7 µM·h; f(Cave) [4]: 3 nM; Fu [5]: 0.013
Nc1ncc(C#CCN(C(=O)Cc2ncc(C(F)(F)F)cc2C(F)(F)F)c2ccc(F)cc2)cn1	1.6 nM		AUC [3]: 24.7 µM·h; f(Cave) [4]: 81 nM; Fu [5]: 0.015
CN(C(=O)Cn1nc2c(c1C(F)(F)F)CCCC2)c1ccccc1		> 555 µL/min/mg	
Nc1cnc(C#CCN(C(=O)Cc2ncc(C(F)(F)F)cc2C(F)(F)F)c2ccc(F)cc2)cn1	4.2 nM		AUC [3]: 108 µM·h; f(Cave) [4]: 81 nM; Fu [5]: 0.018
COc1ccc(C#CCN(C(=O)Cc2ncc(C(F)(F)F)cc2C(F)(F)F)c2ccc(F)cc2)nn1	4.9 nM		AUC [3]: 27.7 µM·h; f(Cave) [4]: 6 nM
CN(C(=O)Cn1nc2c(c1C(F)(F)F)CNCC2)c1ccccc1	> 100000 nM	16 µL/min/mg	
Cn1cnc(C#CCN(C(=O)Cc2ncc(C(F)(F)F)cc2C(F)(F)F)c2ccc(F)cc2)c1	9 nM		AUC [3]: 5.31 µM·h; f(Cave) [4]: 3 nM; Fu [5]: 0.018
CN(C(=O)Cc1ccc(C2CC2)cc1C(F)(F)F)c1ccccc1	40 nM		
